# Experimental data from PMC5309220, “Screening for Small Molecule Inhibitors of Statin-Induced APP C-terminal Toxic Fragment Production” (Frontiers in Pharmacology, 2017).
# Entries after “also recorded” stand apart in the source; their conditions may differ. Counter-ions that a name gives are not always drawn.
# Key:
# sAPPα in CHO-7W cultures = assay: sAPPα ELISA in cell media; assay type: cell-based, Chinese hamster; details: QVD, Sp, 3′F-Sp at 10, 30, and 30 mM, respectively (so in the source), with 10 μM cerivastatin, 24 h, vs CS alone, n = 2
# Protocol: (§1) In an additional study (Supplementary Figure S5A), measurement of the α secretase fragment of full length (FL) APP – soluble APP alpha (sAPPα) – was performed using cell media by ELISA (IBL). Furthermore, in two studies (Supplementary Figures S5B,C), total protein levels in CHO-7W cell lysates were determined by Coomassie Plus protein assay (Pierce).
# (§2) Supplementary file Data_Sheet_1.docx: FIGURE S5 Effect of lead compounds on protein concentration and sAPPα. […] (B) Total protein from lysates of CHO-7W cells treated with either 30 μM QVD or 10 μM Sp alone for 24 h was similar to the vehicle control (n = 1). (C) Total protein from CHO-7W lysates treated with 10 μM CS alone or in combination with QVD, Sp, or 3′F-Sp at the concentrations shown increased (n = 1). Statistical analysis was performed using one-way ANOVA and Dunnett post-test for comparison to the 10 μM CS control (^∗∗p < 0.001, ^∗∗∗p < 0.0001). Click here for additional data file.
# CHO-7W cells = assay: Total protein in CHO-7W cell lysates (Coomassie Plus); assay type: cell-based, Chinese hamster; details: QVD, spiperone, 3′fluorobenzylspiperone at 30, 10, and 10 μM, respectively, with 10 μM cerivastatin, n = 1
# Protocol: as §1, §2
# [1] = PAMPA / immobilized artificial membrane (IAM.PC.DD2) chromatography; assay type: in vitro ADME
# Description: Immobilized artificial membrane (IAM) chromatography such as PAMPA (parallel artificial membrane permeability assay) is used to predict a compound’s passive diffusion through membranes and may predict blood-brain barrier (BBB) penetrance.
# To minimize variability between PAMPA assays for different compounds, the well-characterized, reliable IAM.PC.DD2 Regis Technologies analytical columns were used. In these 10 cm × 4.6 mm columns, the phospholipid is bonded on 10 μm, 300 Å, spherical aminopropyl silica and end capped with C10 and C3 amides.
# Columns were connected to an Agilent high performance liquid chromatography system. […] The mobile phase was a mixture of water and methanol and a gradient was used for the elution of the compounds. The detector was set at 250 and 280 nm. After a compound was eluted, the retention time and void volume times were obtained from the chromatogram.
# The IAM capacity factor (KIAM) was calculated using the equation: KIAM=tr−t0/t0 ; where tr is the
# retention time of a compounds and t0 is the void volume time of the column. […] To predict the likelihood a compound would be BBB penetrant, we used the correlation described by [Yoon et al. (2006)]:
# • (I) If KIAM/MW^4x10^10 > 0.85 the BBB penetration is predicted to be high • (II) If KIAM/MW^4x10^10 < 0.85 the BBB penetration is predicted to be low
# [2] = test system: cerivastatin-induced APPΔC31 in CHO-7W cells; assay: APPΔC31 AlphaLISA dose-response, cerivastatin-induced; assay type: cell-based, Chinese hamster; details: 24 h
# Protocol: The APPΔC31 AlphaLISA assay (Figures 2C–E) was run directly in the plate with the cell lysate as described above in “AlphaLISA to detect APPΔC31.” APPΔC31 levels were measured using the Envision plate reader and data were normalized to DMSO (100% APPΔC31 production) and Q-VD-OPh (MP Biomedicals) pan-caspase inhibitor at 30 μM (0%); these controls were present on each plate. In addition, some compounds of interest were further analyzed in a dose-response curve to determine IC50 values.
# The broad-spectrum pan-caspase inhibitor Q-VD-OPh served as the positive control.
# Lysates were prepared and APPΔC31 determined by ELISA. (B) CHO-7W cells were treated with 10 μM cerivastatin plus increasing doses of caspase and MEK inhibitors for 24 h. Lysates were prepared and APPΔC31 determined by AlphaLISA. Click here for additional data file.
# [3] = test system: cerivastatin-induced APPΔC31 in I5 mouse hippocampal slice cultures; assay: Ex vivo organotypic hippocampal slice cultures, APPΔC31 ELISA; details: 72 h, read-out: inhibition of APPΔC31 production
# Description: I5 mice originally purchased from Jackson labs (JAX B6.Cg-Tg(PDGFB-APP)5Lms/J) were bred and maintained in the Buck Institute vivarium facility, and used under the guidelines of an approved institutional IACUC protocol. P5–7 day mice were sacrificed using CO2 gas and cervical dislocation according to established IACUC protocols. Brains were removed, and under sterile conditions, hippocampi were dissected out on ice in Hybernate media + 1:400 Glutamax, 1:100 Pen/Strep and 1:50 B27 supplement (all Life Technologies). Hippocampi were laid parallel on a tissue chopper (McIlwain) in a small amount of media and sliced at 400 μm thick. Millicell-CM 6-well cell culture inserts (Millipore, 0.4 μm) were prehydrated by pipetting 750 μL culture media under each well and placing in a 35°C, 5% CO2 incubator for at least 30 min. Culture media: 100 mL MEM-HEPES, 50 mL HBSS, 50 mL HI horse serum, 1 mL 100x Pen/Strep (all Gibco), 1.3 g (6.5 mg/mL) glucose, and 2 mL 200 μM (2 mM) Glutamax, sterile filtered. […] Protein was quantitated for each sample using Coomassie Plus reagent (Thermo). […]
# Tissue was harvested and lysates analyzed for APPΔC31 by ELISA. Lysates were protein normalized and expressed as a % of control.
# [4] = test system: cerivastatin-induced APPΔC31 in CHO-7W cells; assay: APPΔC31 immunoblot of CHO-7W cell lysates; assay type: cell-based, Chinese hamster; details: compound at 30 μM, 10 μM cerivastatin, 24 h
# Protocol: For immunoprecipitation, approximately 300 μg cell lysate supernatants were brought to 250 μL with cold RIPA + PI buffer in microfuge tubes. One μL of 6E10 APP antibody (Covance) was added and the mixture was rotated overnight in a cold room. The next day, 25 μL of protein A/G beads (Santa Cruz Biotech) were added and the samples were rotated for 1.5 h in the cold room. The beads were then centrifuged down and washed four times with cold PBS. Forty μL 1x LDS sample buffer + DTT was added to the pellets, which were heated to 70°C for 10 min, vortexed and centrifuged. Supernatants were loaded onto Nupage 4–12% Bis-Tris gels (Life Technologies) for electrophoresis and were then transferred to 0.2 μm PVDF membrane for immunoblotting with the anti-APPΔC31 antibody.
# (A) CHO-7W cells were treated with 10 μM cerivastatin (CS) along with varying concentrations of Q-VD-OPh (QVD) for 24 h. Cell lysates were prepared and immunoprecipitated with anti-APP (6E10) overnight at 4°C and then incubation with Protein A/G beads (Santa Cruz Biotech). The resulting pellets were incubated, electrophoresed using Nupage 4–12% Bis-Tris gels (Life Technologies) and the 0.2 μm PVDF membrane probed with anti-APPΔC31. (B) CHO-7W cells were treated with increasing concentrations of CS or 10 μM CS together with increasing concentrations of 3′-fluorobenzylspiperone maleate (3′-F-Sp) or 30 μM QVD for 24 h. […]
# [5] = test system: cerivastatin-induced APPΔC31 production in CHO-7W cells; assay: APPΔC31 ELISA validation assay, cerivastatin-induced; assay type: cell-based, Chinese hamster; details: CHO-7W cells, 10 μM cerivastatin, 24 h; test concentration not given
# Protocol: The APPΔC31 ELISA developed in partnership with Enzo Life Sciences (ADI-900-227) follows a standard sandwich ELISA design wherein a monoclonal N-terminal APP-specific antibody is used to coat the wells of the microtiter plate (capture antibody) and the anti-APPΔC31 cleavage site-specific polyclonal antibody serves as the detection antibody. An HRP-conjugated secondary antibody is then added and a colorimetric signal generated by enzymatic conversion of the tetramethylbenzidine (TMB) substrate. Protein levels were first determined using a colorimetric coomassie assay (Coomassie Plus, Thermo).
# A subset of hits from our HTS was validated in a secondary assay. […] Thapsigargin also acts as a sarco/endoplasmic reticulum calcium ATPase (SERCA) inhibitor. Therefore, another SERCA inhibitor, 2,5-Di-tert-butylhydroquinone, was also added to the testing. In this secondary assay, CHO-7W cells were cultured as described above and plated into 24-well dishes at ∼200K/well. […] These hits were selected for their potency in primary screen, their structural features, their known activities, and availability of compound for additional testing. There were cerivastatin-only (negative control), + QVD-OPh (positive control), and for viability, vehicle-only (negative) controls. Cells were harvested by removing the media to a tube, adding […] trypsin to detach cells then neutralizing with media. […] Cells were centrifuged at 5000 rpm (2300 × g) for 5 min. Cell pellets were frozen until use. Forty μL cold RIPA buffer plus complete protease inhibitors (Roche) was added to each pellet and the pellets were reconstituted by pipetting up and down, incubating on ice for 30 min, vortexing, and centrifugation as above. Cell lysate supernatants were then assayed by APPΔC31 ELISA as described above. For most compounds, multiple/repeat studies were performed and two wells used for each condition. Statistical comparison was performed using one-way ANOVA for multiple comparisons, with a Dunnett post hoc test to compare each condition to the control. Further dose-response studies were performed on select compounds.
# [6] = test system: APPΔC31 production in CHO-7W cells; assay: Statin induction of APPΔC31, ELISA; assay type: cell-based, Chinese hamster; details: 24 h, statins at 1, 5 and 10 μM
# Protocol: An HRP-conjugated secondary antibody is then added and a colorimetric signal generated by enzymatic conversion of the tetramethylbenzidine (TMB) substrate. Protein levels were first determined using a colorimetric coomassie assay (Coomassie Plus, Thermo).
# APPΔC31 was determined in cell lysates by ELISA.
# in vitro = details: Chinese hamster
Compound,effect on sAPPα (in words) (sAPPα in CHO-7W cultures),effect on total protein concentration with cerivastatin (in words) (CHO-7W cells),"KIAM (IAM capacity factor) ([1]; IAM.PC.DD2 column, water/methanol gradient)","KIAM/MW^4 x 10^10 ([1]; IAM.PC.DD2 column, correlation of Yoon et al. (2006))","BBB Penetration Prediction ([1]; from KIAM/MW^4 x 10^10, cut-off 0.85)","% Min (APPΔC31 dose-response) ([2]; AlphaLISA dose-response (Figure 5C), cerivastatin-stimulated)","IC50 ([2]; Cricetulus griseus, (A) AlphaLISA, cerivastatin-induced, read-out: IC50 (A), APPΔC31 inhibition)",inhibition at 30 µM [3],effect on CS-induced APPΔC31 by immunoblot (in words) [4],APPΔC31 Inh. (mean %) [5],induction of APPΔC31 (in words) [6],"viability at 24 h, 10 µM (in vitro)"
"O=C(CCCN1CCC2(CC1)C(=O)N(Cc1cccc(F)c1)CN2c1ccccc1)c1ccc(F)cc1 [3′Fluorobenzylspiperone maleate, 3′-fluorobenzylspiperone maleate]",increased sAPPα,increased total protein concentration,3.2,0.50,low (If KIAM/MW^4x10^10 < 0.85 the BBB penetration is predicted to be low),25%,2200 nM,~82%,decreased,78%,,
COCc1c(C(C)C)nc(C(C)C)c(/C=C/[C@@H](O)C[C@@H](O)CC(=O)O)c1-c1ccc(F)cc1 [Cerivastatin],,,,,,,,,,,"most effective; also recorded: did so at 1, 5, and 10 μM",15%
